Earlier results on 1 compound are cited in publication PMC10509173, “Deep learning driven de novo drug design based on gastric proton pump structures” (Communications Biology, 2023).

Where two headings read alike, the source gives them in different places.

For the series, the target named is H+,K+-ATPase. On the set-up: method as in PMID 2837231. Particulars: cited from earlier work.

Take `Cc1nc2c(OCc3ccccc3)cccn2c1CC#N` [SCH28080]: the Ki (commonly a dissociation constant, usually derived from enzyme kinetics or from competition with a known ligand) reads like this: (pH 6.11) 20 nM; (pH 7.35) 66 nM.
